Data published in US10851102B2, “Imidazole and triazole containing bicyclic compounds as JAK inhibitors” (THERAVANCE BIOPHARMA R&D IP, LLC, priority 2019, dated 2020).

Key:
JAK1 = JAK1 (Homo sapiens (Human), UniProt P23458); test: Biochemical JAK and Tyk2 kinase assays (LanthaScreen): JAK1; conditions: 1 h pre-incubation, ATP at Km; pIC50 converted to pKi by Cheng-Prusoff
Method: (§1) Assay 1: Biochemical JAK and Tyk2 Kinase Assays
(§2) A panel of four LanthaScreen JAK biochemical assays (JAK1, 2, 3 and Tyk2) were carried in a common kinase reaction buffer (50 mM HEPES, pH 7.5, 0.01% Brij-35, 10 mM MgCl2, and 1 mM EGTA). Recombinant GST-tagged JAK enzymes and a GFP-tagged STAT1 peptide substrate were obtained from Life Technologies.
(§3) Serially or discretely diluted compounds were pre-incubated with each of the four JAK enzymes and the substrate in white 384-well microplates (Corning) at ambient temperature for 1 h. ATP was subsequently added to initiate the kinase reactions in 10 μL total volume, with 1% DMSO. […] Kinase reactions were allowed to proceed for 1 hour at ambient temperature before a 10 μL preparation of EDTA (10 mM final concentration) and Tb-anti-pSTAT1 (pTyr701) antibody (Life Technologies, 2 nM final concentration) in TR-FRET dilution buffer (Life Technologies) was added. The plates were allowed to incubate at ambient temperature for 1 h before being read on the EnVision reader (Perkin Elmer). Emission ratio signals (520 nm/495 nm) were recorded and utilized to calculate the percent inhibition values based on DMSO and background controls.
(§4) For dose-response analysis, percent inhibition data were plotted vs. compound concentrations, and IC50 values were determined from a 4-parameter robust fit model with the Prism software (GraphPad Software). Results were expressed as pIC50 (negative logarithm of IC50) and subsequently converted to pKi (negative logarithm of dissociation constant, Ki) using the Cheng-Prusoff equation.

JAK2 = JAK2 (Homo sapiens (Human), UniProt O60674); test: Biochemical JAK and Tyk2 kinase assays (LanthaScreen): JAK2; conditions: 1 h pre-incubation, ATP at Km; pIC50 converted to pKi by Cheng-Prusoff
Method: as §1, §2, §3, §4

JAK3 = JAK3 (Homo sapiens (Human), UniProt P52333); test: Biochemical JAK and Tyk2 kinase assays (LanthaScreen): JAK3; conditions: for Ki / JAK 3 (pKi): 1 h pre-incubation, ATP at Km, pIC50 converted to pKi by Cheng-Prusoff; for Ki: read-out: JAK 3 (pKi) (converted); for JAK3 (pKi)-JAK1 (pKi): difference of pKi values, selectivity JAK3 over JAK1
Method: as §1, §2, §3, §4

Tyk2 = Tyk2 (Homo sapiens (Human), UniProt P29597); test: Biochemical JAK and Tyk2 kinase assays (LanthaScreen): Tyk2; conditions: 1 h pre-incubation, ATP at Km; pIC50 converted to pKi by Cheng-Prusoff
Method: as §1, §2, §3, §4

[1] = tested on: IL-2 stimulated pSTAT5 in Tall-1 T cells (JAK3); test: Cellular JAK3 potency assay: inhibition of IL-2 stimulated pSTAT5 in Tall-1 T cells; format: cell-based; conditions: IL-2 300 ng/ml, pSTAT5 AlphaLisa, Tall-1 human T cell line; read-out: Tall-1 (pIC50) (converted)
Method: Assay 2: Cellular JAK3 Potency Assay: Inhibition of IL-2 Stimulated pSTAT5 in Tall-1 T Cells
The potency of test compounds for inhibition of interleukin-2 (IL-2) stimulated STATS phosphorylation was measured in the Tall-1 human T cell line (DSMZ) using AlphaLisa. Because IL-2 signals through JAK3, this assay provides a measure of JAK3 cellular potency.
Phosphorylated STATS was measured via the AlphaLISA SureFire Ultra pSTAT5 (Tyr694/699) kit (PerkinElmer).
Human T cells from the Tall-1 cell line were cultured in a 37° C., 5% CO2 humidified incubator in RPMI (Life Technologies) supplemented with 15% Heat Inactivated Fetal Bovine Serum (FBS, Life Technologies), 2 mM Glutamax (Life Technologies), 25 mM HEPES (Life Technologies) and 1× Pen/Strep (Life Technologies). Compounds were serially diluted in DMSO and dispensed acoustically to empty wells. Assay media (phenol red-free DMEM (Life Technologies) supplemented with 10% FBS (ATCC)) was dispensed (4 μL/well) and plates shaken at 900 rpm for 10 mins. Cells were seeded at 45,000 cells/well in assay media (4 μL/well), and incubated at 37° C., 5% CO2 for 1 hour, followed by the addition of IL-2 (R&D Systems; final concentration 300 ng/ml) in pre-warmed assay media ([…]) for 30 minutes. After cytokine stimulation, cells were lysed with 6 ul of 3× AlphaLisa Lysis Buffer (PerkinElmer) containing 1× PhosStop and Complete tablets (Roche). The lysate was shaken at 900 rpm for 10 minutes at room temperature (RT). Phosphorylated STATS was measured via the pSTAT5 AlphaLisa kit (PerkinElmer). Freshly prepared acceptor bead mixture was dispensed onto lysate (5 μL) under green filtered <100 lux light. Plates were shaken at 900 rpm for 2 mins, briefly spun down, and incubated for 2 hrs at RT in the dark. Donor beads were dispensed (5 μL) under green filtered <100 lux light. Plates were shaken at 900 rpm for 2 minutes, briefly spun down, and incubated overnight at RT in the dark. Luminescence was measured with excitation at 689 nm and emission at 570 nm using an EnVision plate reader (PerkinElmer) under green filtered <100 lux light.
To determine the inhibitory potency of test compounds in response to IL-2, the average emission intensity of beads bound to pSTAT5 was measured in a human T cell line. IC50 values were determined from analysis of the inhibition curves of signal intensity versus compound concentration. Data are expressed as pIC50 (negative decadic logarithm IC50) values (mean±standard deviation).

Caco-2 cell monolayers = test: Caco-2 permeation assay; format: in vitro ADME, human; conditions: 5 μM, A to B, + Verapamil 25 μM, 120 minutes
Description: Assay 5: Caco-2 Permeation Assay

Chain of JAK2 (O60674 whole entry): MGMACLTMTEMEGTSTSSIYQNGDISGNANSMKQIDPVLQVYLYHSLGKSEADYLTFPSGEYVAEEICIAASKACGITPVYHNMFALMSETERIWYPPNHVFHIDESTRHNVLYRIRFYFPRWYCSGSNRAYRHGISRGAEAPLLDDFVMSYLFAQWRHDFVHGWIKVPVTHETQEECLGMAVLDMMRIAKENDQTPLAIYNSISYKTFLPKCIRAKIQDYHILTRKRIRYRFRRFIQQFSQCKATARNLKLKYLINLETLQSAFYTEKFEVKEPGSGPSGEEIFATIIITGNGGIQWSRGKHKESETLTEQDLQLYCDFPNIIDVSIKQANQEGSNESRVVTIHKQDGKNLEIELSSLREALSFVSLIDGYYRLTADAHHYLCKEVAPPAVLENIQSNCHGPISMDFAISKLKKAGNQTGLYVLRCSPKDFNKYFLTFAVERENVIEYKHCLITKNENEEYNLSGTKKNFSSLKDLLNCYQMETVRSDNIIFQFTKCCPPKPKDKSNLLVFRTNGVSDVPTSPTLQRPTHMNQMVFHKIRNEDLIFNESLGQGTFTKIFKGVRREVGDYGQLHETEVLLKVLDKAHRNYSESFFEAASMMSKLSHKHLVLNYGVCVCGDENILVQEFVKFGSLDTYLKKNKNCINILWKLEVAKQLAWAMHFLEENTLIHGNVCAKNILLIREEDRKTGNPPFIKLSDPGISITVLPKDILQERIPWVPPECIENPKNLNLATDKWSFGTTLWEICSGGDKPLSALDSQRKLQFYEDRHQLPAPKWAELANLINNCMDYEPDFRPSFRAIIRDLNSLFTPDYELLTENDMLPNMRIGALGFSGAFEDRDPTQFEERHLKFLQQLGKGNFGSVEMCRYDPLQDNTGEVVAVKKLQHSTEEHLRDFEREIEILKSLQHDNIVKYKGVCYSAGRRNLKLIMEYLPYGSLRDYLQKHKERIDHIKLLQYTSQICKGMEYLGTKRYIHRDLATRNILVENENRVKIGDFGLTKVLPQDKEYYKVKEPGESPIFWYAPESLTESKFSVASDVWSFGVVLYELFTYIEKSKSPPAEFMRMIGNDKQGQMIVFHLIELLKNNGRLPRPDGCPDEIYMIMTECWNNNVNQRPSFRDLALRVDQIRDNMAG
Chain of JAK1 (P23458 whole entry): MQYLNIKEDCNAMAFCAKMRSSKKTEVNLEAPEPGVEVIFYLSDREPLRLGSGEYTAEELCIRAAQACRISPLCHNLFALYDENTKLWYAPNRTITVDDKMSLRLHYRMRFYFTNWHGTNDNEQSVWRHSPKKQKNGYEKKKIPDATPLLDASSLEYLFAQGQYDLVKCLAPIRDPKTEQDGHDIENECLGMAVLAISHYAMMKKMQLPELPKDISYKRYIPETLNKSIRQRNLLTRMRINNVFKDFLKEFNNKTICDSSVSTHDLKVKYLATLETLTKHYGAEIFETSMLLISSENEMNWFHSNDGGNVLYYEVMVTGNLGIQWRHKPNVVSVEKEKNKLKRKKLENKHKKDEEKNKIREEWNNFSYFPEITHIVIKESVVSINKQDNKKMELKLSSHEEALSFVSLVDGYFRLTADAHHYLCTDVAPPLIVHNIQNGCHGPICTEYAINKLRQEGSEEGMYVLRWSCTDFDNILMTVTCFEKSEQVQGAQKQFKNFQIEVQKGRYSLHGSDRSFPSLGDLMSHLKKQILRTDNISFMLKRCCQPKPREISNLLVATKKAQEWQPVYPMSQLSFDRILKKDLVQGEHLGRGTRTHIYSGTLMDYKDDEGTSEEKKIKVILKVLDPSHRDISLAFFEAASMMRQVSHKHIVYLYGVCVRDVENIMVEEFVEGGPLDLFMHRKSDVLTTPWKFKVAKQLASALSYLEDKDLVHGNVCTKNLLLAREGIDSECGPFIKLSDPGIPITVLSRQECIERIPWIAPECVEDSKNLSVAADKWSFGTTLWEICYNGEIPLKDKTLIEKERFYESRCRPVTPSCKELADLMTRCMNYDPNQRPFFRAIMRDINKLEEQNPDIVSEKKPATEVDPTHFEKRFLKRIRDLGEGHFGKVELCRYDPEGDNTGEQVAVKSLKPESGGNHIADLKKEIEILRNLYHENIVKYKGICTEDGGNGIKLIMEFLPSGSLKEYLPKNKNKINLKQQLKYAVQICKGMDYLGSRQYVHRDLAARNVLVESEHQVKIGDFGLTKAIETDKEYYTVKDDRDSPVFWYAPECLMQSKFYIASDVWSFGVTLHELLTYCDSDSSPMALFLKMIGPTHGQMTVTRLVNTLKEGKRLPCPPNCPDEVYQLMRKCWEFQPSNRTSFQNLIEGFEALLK
Chain of Tyk2 (P29597 whole entry): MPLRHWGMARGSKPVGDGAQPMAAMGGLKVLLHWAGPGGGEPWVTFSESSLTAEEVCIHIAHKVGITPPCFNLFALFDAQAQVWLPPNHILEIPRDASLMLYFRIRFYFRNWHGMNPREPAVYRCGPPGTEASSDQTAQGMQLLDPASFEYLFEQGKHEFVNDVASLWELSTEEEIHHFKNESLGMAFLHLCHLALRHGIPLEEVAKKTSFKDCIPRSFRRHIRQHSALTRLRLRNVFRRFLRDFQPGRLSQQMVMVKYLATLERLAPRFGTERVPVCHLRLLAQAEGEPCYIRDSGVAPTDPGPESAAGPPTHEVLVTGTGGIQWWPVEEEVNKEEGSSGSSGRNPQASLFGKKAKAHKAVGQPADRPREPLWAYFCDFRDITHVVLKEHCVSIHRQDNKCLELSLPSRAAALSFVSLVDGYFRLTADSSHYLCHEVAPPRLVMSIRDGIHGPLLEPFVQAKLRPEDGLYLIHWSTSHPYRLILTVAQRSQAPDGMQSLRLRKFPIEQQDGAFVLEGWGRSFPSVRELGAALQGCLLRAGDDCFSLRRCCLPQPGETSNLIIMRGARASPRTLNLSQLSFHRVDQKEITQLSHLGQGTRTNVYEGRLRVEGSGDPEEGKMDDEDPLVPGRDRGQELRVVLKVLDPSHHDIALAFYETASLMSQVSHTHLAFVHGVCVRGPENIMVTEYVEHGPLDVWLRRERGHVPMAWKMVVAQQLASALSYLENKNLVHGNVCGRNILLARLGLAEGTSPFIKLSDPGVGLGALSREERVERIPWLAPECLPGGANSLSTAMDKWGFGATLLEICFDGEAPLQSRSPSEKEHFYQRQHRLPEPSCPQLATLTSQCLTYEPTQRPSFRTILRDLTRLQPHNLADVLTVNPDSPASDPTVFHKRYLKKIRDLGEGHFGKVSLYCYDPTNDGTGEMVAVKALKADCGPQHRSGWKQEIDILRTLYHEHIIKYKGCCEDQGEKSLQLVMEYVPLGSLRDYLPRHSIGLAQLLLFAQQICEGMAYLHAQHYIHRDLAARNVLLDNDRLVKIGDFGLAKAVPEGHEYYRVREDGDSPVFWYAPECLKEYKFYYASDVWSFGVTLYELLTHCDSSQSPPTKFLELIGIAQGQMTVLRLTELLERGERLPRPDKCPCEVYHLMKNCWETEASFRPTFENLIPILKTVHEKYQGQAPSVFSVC
Chain of JAK3 (P52333 whole entry): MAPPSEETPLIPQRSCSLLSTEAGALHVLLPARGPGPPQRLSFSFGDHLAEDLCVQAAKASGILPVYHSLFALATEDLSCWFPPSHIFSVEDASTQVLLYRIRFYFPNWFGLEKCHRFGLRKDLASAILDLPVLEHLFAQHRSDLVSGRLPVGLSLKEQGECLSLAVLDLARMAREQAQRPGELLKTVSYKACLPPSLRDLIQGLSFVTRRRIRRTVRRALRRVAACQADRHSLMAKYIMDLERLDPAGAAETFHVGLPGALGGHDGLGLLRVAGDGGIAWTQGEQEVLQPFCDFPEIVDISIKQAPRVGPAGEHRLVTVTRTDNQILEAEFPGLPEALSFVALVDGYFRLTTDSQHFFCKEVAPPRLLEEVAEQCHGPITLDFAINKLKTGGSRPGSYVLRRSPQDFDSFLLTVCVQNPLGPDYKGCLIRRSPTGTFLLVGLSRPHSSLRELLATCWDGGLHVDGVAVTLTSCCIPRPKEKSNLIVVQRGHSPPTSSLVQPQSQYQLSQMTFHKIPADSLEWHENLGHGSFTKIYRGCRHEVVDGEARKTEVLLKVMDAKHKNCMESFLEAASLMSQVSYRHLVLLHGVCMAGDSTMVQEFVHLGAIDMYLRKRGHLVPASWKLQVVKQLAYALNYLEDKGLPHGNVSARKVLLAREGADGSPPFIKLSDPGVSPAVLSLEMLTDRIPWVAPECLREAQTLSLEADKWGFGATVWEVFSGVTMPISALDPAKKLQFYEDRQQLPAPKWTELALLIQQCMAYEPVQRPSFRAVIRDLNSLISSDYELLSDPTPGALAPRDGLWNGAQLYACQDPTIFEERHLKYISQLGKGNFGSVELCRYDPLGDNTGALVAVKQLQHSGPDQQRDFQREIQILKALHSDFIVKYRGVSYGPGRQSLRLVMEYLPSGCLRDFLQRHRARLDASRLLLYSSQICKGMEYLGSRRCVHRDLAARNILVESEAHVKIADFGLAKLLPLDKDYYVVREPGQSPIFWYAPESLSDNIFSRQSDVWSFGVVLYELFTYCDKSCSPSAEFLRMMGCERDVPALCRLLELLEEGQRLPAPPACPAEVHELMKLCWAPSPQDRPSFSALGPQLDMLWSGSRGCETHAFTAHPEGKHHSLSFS

Compound | JAK 1 (pKi) (JAK1) | JAK 2 (pKi) (JAK2) | Ki (JAK3) [nM] | JAK3 (pKi)-JAK1 (pKi) (JAK3) | Tyk 2 (pKi) (Tyk2) | IC50 [1] [nM] | Caco Kp 10^−6 cm/sec (Caco-2 cell monolayers) | JAK 3 (pKi) (JAK3)
C=CC(=O)N1CC[C@H](Oc2cc(-c3ccc(O)cc3)cn3cncc23)C1 [Example 1, (S)-1-(3-((6-(4-hydroxyphenyl)imidazo[1,5-a]pyridin-8-yl)oxy)pyrrolidin-1-yl)prop-2-en-1-one] | E (E represents a pKi value of 7 or below (Ki of 100 nM or above)) | E (E represents a pKi value of 7 or below (Ki of 100 nM or above)) | 0.1 to 1 | A (A represents a value of 3 or above) | E (E represents a pKi value of 7 or below (Ki of 100 nM or above)) | 200 to 1000 | – | –
C=CC(=O)N1CCC(COc2cc(-c3ccc(O)cc3)cn3cncc23)CC1 [Example 2, 1-(4-(((6-(4-hydroxyphenyl)imidazo[1,5-a]pyridin-8-yl)oxy)methyl)piperidin-1-yl)prop-2-en-1-one] | E (E represents a pKi value of 7 or below (Ki of 100 nM or above)) | E (E represents a pKi value of 7 or below (Ki of 100 nM or above)) | 0.1 to 1 | A (A represents a value of 3 or above) | E (E represents a pKi value of 7 or below (Ki of 100 nM or above)) | 200 to 1000 | C (C represents a value between 10×10^−6 and 25×10^−6 cm/sec) | –
C=CC(=O)N1CC2(CCC2Oc2cc(-c3ccc(O)cc3)cn3cncc23)C1 (stereo not drawn) [Example 3, 1-(5-((6-(4-hydroxyphenyl)imidazo[1,5-a]pyridin-8-yl)oxy)-2-azaspiro[3.3]heptan-2-yl)prop-2-en-1-one] | E (E represents a pKi value of 7 or below (Ki of 100 nM or above)) | E (E represents a pKi value of 7 or below (Ki of 100 nM or above)) | 0.1 to 1 | A (A represents a value of 3 or above) | E (E represents a pKi value of 7 or below (Ki of 100 nM or above)) | 31.6 to 200 | – | –
C=CC(=O)N1CCC(Nc2cc(-c3ccc(O)cc3)cn3cncc23)CC1 [Example 4, 1-(4-((6-(4-hydroxyphenyl)imidazo[1,5-a]pyridin-8-yl)amino)piperidin-1-yl)prop-2-en-1-one] | E (E represents a pKi value of 7 or below (Ki of 100 nM or above)) | E (E represents a pKi value of 7 or below (Ki of 100 nM or above)) | 1 to 10 | B (B represents a value of 2.3 to 3) | E (E represents a pKi value of 7 or below (Ki of 100 nM or above)) | – | – | –
C=CC(=O)N1CC(COc2nc(-c3ccc(O)cc3)cn3cncc23)C1 [Example 6, 1-(3-(((6-(4-hydroxyphenyl)imidazo[1,5-a]pyrazin-8-yl)oxy)methyl)azetidin-1-yl)prop-2-en-1-one] | E (E represents a pKi value of 7 or below (Ki of 100 nM or above)) | E (E represents a pKi value of 7 or below (Ki of 100 nM or above)) | 0.1 to 1 | A (A represents a value of 3 or above) | E (E represents a pKi value of 7 or below (Ki of 100 nM or above)) | 31.6 to 200 | B (B represents a value between 5×10^−6 and 10×10^−6 cm/sec) | –
CN(C)C/C=C/C(=O)N1CC(COc2cc(-c3ccc(O)c(Cl)c3)cn3cncc23)C1 [Example 23] | E (E represents a pKi value of 7 or below (Ki of 100 nM or above)) | E (E represents a pKi value of 7 or below (Ki of 100 nM or above)) | 0.1 to 1 | A (A represents a value of 3 or above) | E (E represents a pKi value of 7 or below (Ki of 100 nM or above)) | 200 to 1000 | – | –
C=CC(=O)N1CC[C@H](COc2cc(-c3ccc(O)cc3)cn3cncc23)C1 [Example 26] | E (E represents a pKi value of 7 or below (Ki of 100 nM or above)) | E (E represents a pKi value of 7 or below (Ki of 100 nM or above)) | 0.1 to 1 | A (A represents a value of 3 or above) | E (E represents a pKi value of 7 or below (Ki of 100 nM or above)) | 200 to 1000 | – | –
C=CC(=O)N1CCC[C@H](Oc2cc(-c3ccc(O)cc3)cn3cncc23)C1 [Example 27] | E (E represents a pKi value of 7 or below (Ki of 100 nM or above)) | E (E represents a pKi value of 7 or below (Ki of 100 nM or above)) | 0.1 to 1 | A (A represents a value of 3 or above) | E (E represents a pKi value of 7 or below (Ki of 100 nM or above)) | 200 to 1000 | – | –
C=CC(=O)N1CC(COc2cc(-c3cc(Cl)c(O)c(Cl)c3)cn3cncc23)C1 [Example 33] | E (E represents a pKi value of 7 or below (Ki of 100 nM or above)) | – | – | A (A represents a value of 3 or above) | – | 31.6 to 200 | A (A represents a value below 5×10^−6 cm/sec) | A (A represents a pKi value≥10 (Ki≤0.1 nM))
C=CC(=O)N1CC2(CC(Oc3cc(-c4ccc(O)cc4)cn4cncc34)C2)C1 [Example 37] | E (E represents a pKi value of 7 or below (Ki of 100 nM or above)) | E (E represents a pKi value of 7 or below (Ki of 100 nM or above)) | 0.1 to 1 | A (A represents a value of 3 or above) | E (E represents a pKi value of 7 or below (Ki of 100 nM or above)) | 200 to 1000 | – | –
C=CC(=O)N1CC[C@@H](Oc2cc(-c3ccc(O)cc3)cn3cncc23)C[C@@H]1C [Example 39] | E (E represents a pKi value of 7 or below (Ki of 100 nM or above)) | E (E represents a pKi value of 7 or below (Ki of 100 nM or above)) | – | A (A represents a value of 3 or above) | E (E represents a pKi value of 7 or below (Ki of 100 nM or above)) | 31.6 to 200 | – | A (A represents a pKi value≥10 (Ki≤0.1 nM))
C=CC(=O)N1CC[C@@H](Oc2cc(-c3ccc(O)cc3)cn3cncc23)[C@@H](C)C1 [Example 41] | E (E represents a pKi value of 7 or below (Ki of 100 nM or above)) | E (E represents a pKi value of 7 or below (Ki of 100 nM or above)) | – | A (A represents a value of 3 or above) | E (E represents a pKi value of 7 or below (Ki of 100 nM or above)) | 31.6 to 200 | – | A (A represents a pKi value≥10 (Ki≤0.1 nM))
C=CC(=O)N1CC(COc2cc(-c3ccc(O)cc3C)cn3cncc23)C1 [Example 44] | E (E represents a pKi value of 7 or below (Ki of 100 nM or above)) | E (E represents a pKi value of 7 or below (Ki of 100 nM or above)) | 0.1 to 1 | A (A represents a value of 3 or above) | E (E represents a pKi value of 7 or below (Ki of 100 nM or above)) | 31.6 to 200 | – | –
